According to ChEMBL document CHEMBL1136617, “Cyclic amidines as benzamide bioisosteres: EPC synthesis and SAR studies leading to the selective dopamine D4 receptor agonist FAUC 312” (Bioorg Med Chem Lett, 2003):

Tests used:
D(1A) dopamine receptor = D(1A) dopamine receptor (Bos taurus, UniProt Q95136); assay: In vitro Binding affinity towards dopamine D1 receptor using bovine striatal membrane preparations and antagonist [3H]-SCH- 23390; set-up: species or system Striatum
D(2) dopamine receptor [1] = target: T1, D(2) dopamine receptor (Homo sapiens, UniProt P14416); assay: biochemical; format: cell-based, CHO
D(2) dopamine receptor [2] = target: T1, D(2) dopamine receptor; assay: biochemical; format: cell-based, CHO; remark: listed apart in the source
Description: In vitro binding affinity to displace [3H]-spiperone from the cloned human dopamine receptor D2 short in CHO cells

D(4) dopamine receptor [3] = target: T2, D(4) dopamine receptor (Homo sapiens, UniProt P21917); assay: biochemical; format: cell-based, CHO
T2 sequence (P21917 whole entry): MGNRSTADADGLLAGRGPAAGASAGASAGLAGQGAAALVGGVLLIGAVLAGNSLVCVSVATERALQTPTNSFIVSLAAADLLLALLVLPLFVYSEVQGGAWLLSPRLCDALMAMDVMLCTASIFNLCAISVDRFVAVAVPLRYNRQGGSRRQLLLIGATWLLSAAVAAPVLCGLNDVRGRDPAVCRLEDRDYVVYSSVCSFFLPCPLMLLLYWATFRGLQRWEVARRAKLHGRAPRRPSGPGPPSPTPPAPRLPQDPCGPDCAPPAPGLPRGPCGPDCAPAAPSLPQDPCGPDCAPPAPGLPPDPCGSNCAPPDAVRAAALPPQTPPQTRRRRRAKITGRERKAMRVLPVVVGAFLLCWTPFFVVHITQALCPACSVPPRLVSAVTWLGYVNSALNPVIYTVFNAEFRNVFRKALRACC
Description: In vitro binding affinity to displace [3H]spiperone from the cloned human dopamine receptor D4 in CHO cells

D(3) dopamine receptor [4] = target: T3, D(3) dopamine receptor (Homo sapiens, UniProt P35462); assay: biochemical
[5] = target: T4, D(4) dopamine receptor (Homo sapiens) (UniProt P21917); assay: In vitro functional assay measuring the [3H]thymidine uptake in growing CHO cells stably expressing the dopamine D4.2 receptor was performed; format: cell-based
T4 sequence (whole entry): T2 sequence (P21917 whole entry)

D(2) dopamine receptor [6] = target: T1, D(2) dopamine receptor; assay: In vitro binding affinity to displace [3H]spiperone from the cloned human dopamine receptor D2 long in CHO cells; format: cell-based
D(2) dopamine receptor [7] = target: T1, D(2) dopamine receptor; assay: In vitro binding affinity to displace [3H]spiperone from the cloned human dopamine receptor D2 short in CHO cells; format: cell-based
D(4) dopamine receptor [8] = target: T2, D(4) dopamine receptor; assay: In vitro binding affinity to displace [3H]-spiperone from the cloned human dopamine receptor D4 in CHO cells; format: cell-based
D(3) dopamine receptor [9] = target: T3, D(3) dopamine receptor; assay: In vitro binding affinity to displace [3H]spiperone from the cloned human dopamine receptor D3 in CHO cells; format: cell-based
D(2) dopamine receptor [10] = target: T1, D(2) dopamine receptor; assay: In vitro ability to displace [3H]spiperone from the cloned human dopamine D2 short receptor expressed in CHO cells; format: cell-based
D(4) dopamine receptor [11] = target: T2, D(4) dopamine receptor; assay: Effective concentration for [3H]thymidine uptake in growing CHO cells stably expressing the dopamine D4.2 receptor; format: cell-based
D(2) dopamine receptor [12] = target: T1, D(2) dopamine receptor; assay: In vitro ability to displace [3H]spiperone from the cloned human dopamine D2 long receptor expressed in CHO cells; format: cell-based
D(3) dopamine receptor [13] = target: T3, D(3) dopamine receptor; assay: In vitro ability to displace [3H]spiperone from cloned human dopamine D3 receptor expressed in CHO cells; format: cell-based
D(4) dopamine receptor [14] = target: T2, D(4) dopamine receptor; assay: In vitro ability to displace [3H]spiperone from the cloned human dopamine D4 receptor expressed in CHO cells; format: cell-based

Chain of D(1A) dopamine receptor (Q95136 whole entry): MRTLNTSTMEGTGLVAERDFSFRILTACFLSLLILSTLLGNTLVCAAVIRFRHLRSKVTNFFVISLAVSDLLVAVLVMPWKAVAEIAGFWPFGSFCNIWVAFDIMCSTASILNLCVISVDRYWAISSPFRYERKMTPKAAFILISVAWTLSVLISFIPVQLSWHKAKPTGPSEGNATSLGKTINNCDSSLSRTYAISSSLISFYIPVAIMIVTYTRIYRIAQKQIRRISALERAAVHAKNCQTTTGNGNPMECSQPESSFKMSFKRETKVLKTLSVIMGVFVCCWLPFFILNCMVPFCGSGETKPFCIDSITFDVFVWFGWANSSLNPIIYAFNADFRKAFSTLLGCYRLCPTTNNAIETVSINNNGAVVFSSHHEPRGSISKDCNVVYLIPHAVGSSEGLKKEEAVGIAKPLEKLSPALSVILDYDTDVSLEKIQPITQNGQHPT
T3 sequence (P35462 whole entry): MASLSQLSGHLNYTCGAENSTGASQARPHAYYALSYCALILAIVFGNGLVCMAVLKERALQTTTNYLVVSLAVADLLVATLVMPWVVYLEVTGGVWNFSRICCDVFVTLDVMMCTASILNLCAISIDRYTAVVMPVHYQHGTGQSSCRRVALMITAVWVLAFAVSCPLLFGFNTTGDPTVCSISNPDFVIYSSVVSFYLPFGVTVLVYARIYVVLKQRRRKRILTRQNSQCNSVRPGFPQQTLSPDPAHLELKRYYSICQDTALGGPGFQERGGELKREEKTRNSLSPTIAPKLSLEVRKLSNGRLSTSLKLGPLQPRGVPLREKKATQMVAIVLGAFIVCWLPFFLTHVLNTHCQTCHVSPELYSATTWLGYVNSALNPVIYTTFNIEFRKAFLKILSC
T1 sequence (P14416 whole entry): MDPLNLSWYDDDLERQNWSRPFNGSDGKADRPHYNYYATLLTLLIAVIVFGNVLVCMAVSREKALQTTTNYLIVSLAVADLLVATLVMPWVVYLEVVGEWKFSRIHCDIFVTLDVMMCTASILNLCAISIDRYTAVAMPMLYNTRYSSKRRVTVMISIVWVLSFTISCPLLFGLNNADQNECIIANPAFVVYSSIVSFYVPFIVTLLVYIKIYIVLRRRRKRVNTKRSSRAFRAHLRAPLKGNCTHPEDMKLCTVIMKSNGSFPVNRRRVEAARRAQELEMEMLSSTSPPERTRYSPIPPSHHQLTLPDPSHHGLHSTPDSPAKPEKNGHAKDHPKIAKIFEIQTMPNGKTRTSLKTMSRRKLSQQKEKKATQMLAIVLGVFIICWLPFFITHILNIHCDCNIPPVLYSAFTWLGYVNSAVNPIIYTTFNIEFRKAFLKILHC

Compound | Ki (D(1A) dopamine receptor) [µM] | Ki (D(2) dopamine receptor [1]) [µM] | Ki (D(2) dopamine receptor [2]) [µM] | Ki (D(4) dopamine receptor [3]) [µM] | Ki (D(3) dopamine receptor [4]) [µM] | further results
O=C1C[C@H](CN2CCN(c3ccccc3)CC2)N=C(c2ccccc2)N1 | 19 | 7.3 | 2.8 | 0.46 | 12 | 
c1ccc(C2=NCC[C@H](CN3CCN(c4ccccc4)CC3)N2)cc1 |  |  |  |  |  | Stimulation [5]: 83%
COc1ccc(Br)cc1C1=NCC[C@@H](CN2CCN(c3ccccc3)CC2)N1 | 9.1 | 16 | 14 | 3.5 | 1.9 | 
COc1ccc(Br)cc1C1=NCC[C@H](CN2CCN(c3ccccc3)CC2)N1 | 15 | 44 | 43 | 1.6 | 7.4 | 
c1ccc(C2=NCC[C@@H](CN3CCN(c4ccccc4)CC3)N2)cc1 | 39 |  |  |  |  | Ki (D(2) dopamine receptor [6]): 29 µM; Ki (D(2) dopamine receptor [7]): 30 µM; Ki (D(4) dopamine receptor [8]): 0.31 µM; Ki (D(3) dopamine receptor [9]): 13 µM
O=C1C[C@@H](CN2CCN(c3ccccc3)CC2)N=C(c2ccccc2)N1 | 8.9 | 18 | 6.4 | 3.7 | 20 | 

More lines, main results first:

Ki (D(1A) dopamine receptor) [µM] | Ki (D(2) dopamine receptor [1]) [µM] | Ki (D(2) dopamine receptor [2]) [µM] | Ki (D(4) dopamine receptor [3]) [µM] | Ki (D(3) dopamine receptor [4]) [µM] | Compound | further results
23 | 19 | 14 | 4.4 | 3.3 | c1ccc(C2=NCC(N3CCN(c4ccccc4)CC3)CCN2)cc1 (single isomer, unassigned) | 
29 |  |  |  |  | c1ccc(C2=N[C@@H](CN3CCN(c4ccccc4)CC3)CCN2)cc1 | Ki (D(2) dopamine receptor [10]): 32 µM; EC50 (D(4) dopamine receptor [11]): 0.05 µM; Ki (D(2) dopamine receptor [12]): 25 µM; Ki (D(3) dopamine receptor [13]): 13 µM; Ki (D(4) dopamine receptor [14]): 0.0015 µM
23 | 10 | 4.2 | 0.12 | 12 | c1ccc(C2=NC[C@H](N3CCN(c4ccccc4)CC3)CCN2)cc1 | 
